Values of other authors in patent US11116842B2, “Methylene blue complex for treating skin disease and its use thereof” (D. R. NANO Co., Ltd., priority 2017, dated 2021).

Test system: skin disease such as acne
Details: for side effect in a long-term application: background art

Structure (SMILES)	side effect in a long-term application	Light protection time after operation (prior-art photosensitizers)	Treatment effect (prior-art photosensitizers)
NCC(=O)CCC(=O)O [ALA, 5-aminolevulinic acid]	xeroderma	T > 30 hr	strong
COC(=O)CCC(=O)CN [MAL, Methyl-aminolevulinate]	xeroderma		
